Paper PMC9154761, “Development of Praziquantel sulphonamide derivatives as antischistosomal drugs” (Journal of Enzyme Inhibition and Medicinal Chemistry, 2022)
Like-named read-outs stand apart in the source and are kept apart here.

Experiments:
hCA I = molecular target: T1, hCA I (Homo sapiens, UniProt P00915); test: stopped flow CO2 hydrase assay, hCA I; type: biochemical; details: mean from three different assays
T1 construct: made in house
Protocol: (§1) An Applied Photophysics stopped-flow instrument was used to assay the CA catalysed CO2 hydration activity. […] The CO2 concentrations ranged from 1.7 to 17 mM for the determination of the kinetic parameters and inhibition constants. […] For each inhibitor, at least six traces of the initial 5–10% of the reaction were used to determine the initial velocity. The uncatalyzed rates were determined in the same manner and subtracted from the total observed rates. Stock solutions of the inhibitor (0.1 mM) were prepared in distilled–deionized water and dilutions up to 0.01 nM were done thereafter with the assay buffer. Inhibitor and enzyme solutions were preincubated together for 15 min at room temperature prior to the assay, to allow for the formation of the E–I complex. The inhibition constants were obtained by non-linear least-squares methods using PRISM 3 and the Cheng-Prusoff equation as reported earlier and represent the mean from at least three different determinations. All CA isoforms were recombinant proteins obtained in house, as reported earlier[14]^,[26–29].

hCA II = molecular target: T2, hCA II (Homo sapiens, UniProt P00918); test: stopped flow CO2 hydrase assay, hCA II; type: biochemical; details: mean from three different assays, read-out: Ki hCAII
T2 construct: made in house
Protocol: as §1

hCA IV = molecular target: T3, hCA IV (Homo sapiens, UniProt P22748); test: stopped flow CO2 hydrase assay, hCA IV; type: biochemical; details: mean from three different assays
T3 construct: made in house
Protocol: as §1

hCA IX = molecular target: T4, hCA IX (Homo sapiens, UniProt Q16790); test: stopped flow CO2 hydrase assay, hCA IX; type: biochemical; details: mean from three different assays
T4 construct: made in house
Protocol: as §1

LdCA = LdCA (Leishmania donovani, UniProt A0A3S5H5R2); test: biochemical
Protocol: (§2) An Applied Photophysics stopped-flow instrument was used to assay the CA catalysed CO2 hydration activity. […] The uncatalyzed rates were determined in the same manner and subtracted from the total observed rates. Stock solutions of the inhibitor (0.1 mM) were prepared in distilled–deionized water and dilutions up to 0.01 nM were done thereafter with the assay buffer. Inhibitor and enzyme solutions were preincubated together for 15 min at room temperature prior to the assay, to allow for the formation of the E–I complex. The inhibition constants were obtained by non-linear least-squares methods using PRISM 3 and the Cheng-Prusoff equation as reported earlier and represent the mean from at least three different determinations. All CA isoforms were recombinant proteins obtained in house, as reported earlier[14]^,[26–29].

SmCA = SmCA (Schistosoma mansoni, UniProt A0A3Q0KSG2); test: biochemical
Protocol: as §2

TcCA = TcCA (Trypanosoma cruzi, UniProt Q4DKE0); type: biochemical; details: stopped flow CO2 hydrase assay; mean from three different assays
Protocol: as §2

[1] = stopped flow CO2 hydrase assay, mean from three different assays, read-out: Ki LdCA
[2] = stopped flow CO2 hydrase assay, mean from three different assays, read-out: Ki SmCA

Sequence of SmCA (A0A3Q0KSG2 entry or part of it): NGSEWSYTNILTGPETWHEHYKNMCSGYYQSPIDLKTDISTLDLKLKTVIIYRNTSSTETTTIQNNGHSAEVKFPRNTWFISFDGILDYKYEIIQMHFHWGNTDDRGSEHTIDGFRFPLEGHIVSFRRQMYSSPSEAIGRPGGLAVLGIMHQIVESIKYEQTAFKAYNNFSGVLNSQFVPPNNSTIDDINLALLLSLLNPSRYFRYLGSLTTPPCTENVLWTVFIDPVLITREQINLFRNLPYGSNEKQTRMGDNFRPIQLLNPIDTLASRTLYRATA
Sequence of LdCA (A0A3S5H5R2 entry or part of it): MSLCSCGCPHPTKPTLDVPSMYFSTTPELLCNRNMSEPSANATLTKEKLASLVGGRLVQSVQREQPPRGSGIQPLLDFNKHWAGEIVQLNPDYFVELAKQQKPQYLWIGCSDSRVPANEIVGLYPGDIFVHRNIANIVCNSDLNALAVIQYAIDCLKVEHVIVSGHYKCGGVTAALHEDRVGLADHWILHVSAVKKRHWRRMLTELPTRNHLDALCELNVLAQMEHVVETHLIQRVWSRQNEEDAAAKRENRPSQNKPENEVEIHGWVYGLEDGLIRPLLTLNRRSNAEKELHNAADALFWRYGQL
T3 sequence (P22748 19-312): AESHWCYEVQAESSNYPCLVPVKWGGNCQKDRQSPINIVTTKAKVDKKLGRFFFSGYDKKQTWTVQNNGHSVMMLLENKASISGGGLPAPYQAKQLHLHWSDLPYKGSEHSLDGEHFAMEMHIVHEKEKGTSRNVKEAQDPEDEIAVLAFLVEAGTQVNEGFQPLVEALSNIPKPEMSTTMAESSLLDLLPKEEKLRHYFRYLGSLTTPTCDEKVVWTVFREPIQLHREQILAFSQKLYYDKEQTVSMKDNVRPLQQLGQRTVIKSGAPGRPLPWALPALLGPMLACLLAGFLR
T1 sequence (P00915 whole entry): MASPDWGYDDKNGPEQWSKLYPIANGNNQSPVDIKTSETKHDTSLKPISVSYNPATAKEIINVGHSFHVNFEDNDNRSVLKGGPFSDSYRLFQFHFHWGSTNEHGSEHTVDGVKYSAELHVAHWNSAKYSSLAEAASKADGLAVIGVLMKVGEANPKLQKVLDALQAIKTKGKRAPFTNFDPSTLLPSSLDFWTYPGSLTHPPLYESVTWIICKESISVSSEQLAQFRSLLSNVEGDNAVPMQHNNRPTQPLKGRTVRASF
Sequence of TcCA (Q4DKE0 entry or part of it): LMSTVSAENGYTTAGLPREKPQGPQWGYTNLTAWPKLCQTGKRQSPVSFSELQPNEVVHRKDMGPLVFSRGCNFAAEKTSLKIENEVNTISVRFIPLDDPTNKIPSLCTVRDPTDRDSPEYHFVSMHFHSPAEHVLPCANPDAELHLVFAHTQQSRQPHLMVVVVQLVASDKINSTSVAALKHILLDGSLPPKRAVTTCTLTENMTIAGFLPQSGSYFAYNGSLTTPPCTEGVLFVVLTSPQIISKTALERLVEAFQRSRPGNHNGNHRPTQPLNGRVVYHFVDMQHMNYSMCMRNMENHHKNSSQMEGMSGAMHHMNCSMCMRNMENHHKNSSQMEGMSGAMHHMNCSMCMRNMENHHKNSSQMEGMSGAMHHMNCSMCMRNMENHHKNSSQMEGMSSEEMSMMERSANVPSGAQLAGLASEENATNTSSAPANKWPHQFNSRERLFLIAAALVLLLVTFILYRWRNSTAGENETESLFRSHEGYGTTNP

Row | Molecule | Ki (hCA I) | Ki (hCA II) | Ki (hCA IV) | Ki (hCA IX) | Ki (LdCA; [1]) | Ki (SmCA; [2]) | Ki (TcCA) | Ki (LdCA) | Ki (SmCA)
1 | NS(=O)(=O)c1cccc(NC(=O)N2CC(=O)N3CCc4ccccc4C3C2)c1 (centres unmarked) [Compound 34b, 4-Oxo-N-(3-sulfamoylphenyl)-1,3,4,6,7,11b-hexahydro-2H-pyrazino[2,1-a]isoquinoline-2-carboxamide] | 0.409 ± 0.0233 µM | 0.0456 ± 0.003 µM | 0.517 ± 0.0524 µM | 0.0919 ± 0.0088 µM | 0.347 ± 0.0343 µM | 7.2 ± 0.661 µM | – | – | –
2 | NS(=O)(=O)c1ccc(C(=O)N2CC(=O)N3CCc4ccccc4C3C2)cc1 (centres unmarked) [Compound 4a, 4–(4-Oxo-1,3,4,6,7,11b-hexahydro-2H-pyrazino[2,1-a]isoquinoline-2-carbonyl) benzenesulfonamide] | 0.0938 ± 0.0088 µM | 0.0446 ± 0.0034 µM | 8.86 ± 0.617 µM | 0.0303 ± 0.003 µM | 0.371 ± 0.0269 µM | 1.89 ± 0.195 µM | – | – | –
3 | NS(=O)(=O)c1ccc(CNC(=O)Nc2ccc(C(=O)N3CC(=O)N4CCc5ccccc5C4C3)cc2)cc1 (centres unmarked) [Compound 32, 4-((3–(4-(4-Oxo-1,3,4,6,7,11b-hexahydro-2H-pyrazino[2,1-a]isoquinoline-2-carbonyl)phenyl)ureido)methyl)benzenesulfonamide] | 0.0807 ± 0.0048 µM | 0.0265 ± 0.0024 µM | 0.665 ± 0.0473 µM | 0.112 ± 0.0113 µM | 0.401 ± 0.0348 µM | 6.35 ± 0.472 µM | – | – | –
4 | NS(=O)(=O)c1ccc(NC(=S)N2CC(=O)N3CCc4ccccc4C3C2)cc1 (centres unmarked) [Compound 35a, 4-Oxo-N-(4-sulfamoylphenyl)-1,3,4,6,7,11b-hexahydro-2H-pyrazino[2,1-a]isoquinoline-2-carbothioamide] | 0.303 ± 0.0241 µM | 0.0539 ± 0.0044 µM | 7.11 ± 0.404 µM | 0.0822 ± 0.0086 µM | 0.323 ± 0.0222 µM | 0.0794 ± 0.0042 µM | – | – | –
5 | 3–(3-(4–(4-Oxo-1,3,4,6,7,11b-hexahydro-2H-pyrazino[2,1-a]isoquinoline-2-carbonyl) phenyl)ureido)benzenesulfonamide [Compound 31d] | – | – | 0.32 ± 0.0327 µM | 0.138 ± 0.0078 µM | 0.0828 ± 0.0055 µM | 0.764 ± 0.0683 µM | 0.393 ± 0.0247 µM | – | –
6 | NS(=O)(=O)c1ccc(NC(=S)Nc2ccc([Se]Cc3ccc(C(=O)N4CC(=O)N5CCc6ccccc6C5C4)cc3)cc2)cc1 (centres unmarked) [Compound 9, 4–(3-(4-((4–(4-oxo-1,3,4,6,7,11b-hexahydro-2H-pyrazino[2,1-a]isoquinoline-2-carbonyl)benzyl)selanyl)phenyl)thioureido)benzenesulfonamide] | 0.486 ± 0.0249 µM | 0.131 ± 0.014 µM | 0.966 ± 0.0828 µM | 0.174 ± 0.0172 µM | – | – | – | 0.276 ± 0.0224 µM | 0.771 ± 0.0401 µM
7 | NS(=O)(=O)c1ccc(NC(=O)NCc2ccc(C(=O)Nc3nc(CC(=O)N4CC(=O)N5CCc6ccccc6C5C4)cs3)cc2)cc1 (centres unmarked) [Compound 29a, N-(4–(2-oxo-2–(4-oxo-1,3,4,6,7,11b-hexahydro-2H-pyrazino[2,1-a]isoquinolin-2-yl)ethyl)thiazol-2-yl)-4-((3–(4-sulfamoylphenyl)ureido)methyl)benzamide] | 0.314 ± 0.0305 µM | 0.0496 ± 0.0032 µM | 0.541 ± 0.0303 µM | 0.0319 ± 0.0019 µM | 0.0855 ± 0.00677 µM | 1.64 ± 0.097 µM | – | – | –
8 | NS(=O)(=O)c1cccc(NC(=O)NCc2ccc(C(=O)Nc3nc(CC(=O)N4CC(=O)N5CCc6ccccc6C5C4)cs3)cc2)c1 (centres unmarked) [Compound 29b, N-(4–(2-oxo-2–(4-oxo-1,3,4,6,7,11b-hexahydro-2H-pyrazino[2,1-a]isoquinolin-2-yl)ethyl)thiazol-2-yl)-4-((3–(3-sulfamoylphenyl)ureido)methyl)benzamide] | 0.506 ± 0.0279 µM | 0.0071 ± 0.0006 µM | 0.789 ± 0.0662 µM | 0.199 ± 0.0176 µM | 0.218 ± 0.0179 µM | 0.901 ± 0.0776 µM | – | – | –
9 | NS(=O)(=O)c1cccc(NC(=O)NCc2ccc(C(=O)N3CC(=O)N4CCc5ccccc5C4C3)cc2)c1 (centres unmarked) [Compound 28b, 3–(3-(4–(4-Oxo-1,3,4,6,7,11b-hexahydro-2H-pyrazino[2,1-a]isoquinoline-2-carbonyl)benzyl)ureido)benzenesulfonamide] | 0.0965 ± 0.0065 µM | 0.0149 ± 0.0015 µM | 0.851 ± 0.0562 µM | 0.0299 ± 0.0016 µM | 0.3 ± 0.0305 µM | 0.825 ± 0.0668 µM | – | – | –
